{"source": "patent US20110006261A1", "about": "“USE OF AN OZONE/OXYGEN MIXTURE AS PRIMARY ANTICANCER THERAPY THROUGH INTRAPERITONEAL INSUFFLATION” (priority 2007, published 2011)", "key": {"[1]": {"settings": "inhaled, mice; cited from earlier work"}, "[2]": {"test": "Adverse effects: intraabdominal pressure, body weight, clinical signs"}, "auricular VX2 carcinoma": {"system": "auricular VX2 carcinoma", "test": "Therapy of auricular VX2 carcinoma in rabbits by intraperitoneal gas insufflation (survival, tumor clearance)", "assay_type": "in vivo, New Zealand White (NZW) rabbit"}}, "note": "Values joined by “and” are separate entries in the source; they are usually repeats but may differ in a detail not shown here. Identical values can stand only once.", "data": [{"compound": "O=[O+][O-]", "note": "[ozone]", "values": [{"measurement": "adverse effect grade (weight loss)", "setting": "[1]", "value": "grade II"}, {"measurement": "weight loss", "setting": "[1]", "value": "up to 14%"}]}, {"compound": "medical ozone/oxygen (O3/O2) gas mixture", "values": [{"measurement": "severe side effects (sustained body weight reduction, gas embolism, fever, diarrhea, peritonitis)", "setting": "[2]; rabbit, in vivo", "value": "no severe side effects"}]}, {"compound": "O=O", "note": "[O2, pure medical oxygen]", "values": [{"measurement": "day of tumor clearance", "setting": "auricular VX2 carcinoma; day after tumor cell inoculation", "value": "68 days and 85 days"}, {"measurement": "mean survival time", "setting": "auricular VX2 carcinoma; observation period 90 days after tumor cell inoculation", "value": 51, "unit": "days"}, {"measurement": "number of rabbits with tumor remission", "setting": "auricular VX2 carcinoma; until day 90", "value": "two"}, {"measurement": "maximal drop of mean body weight", "setting": "[2]; compared to mean body weight on day 14", "value": 5.0, "unit": "%"}]}]}
